Assay results: patent US12264142B2, “Heterocyclic compounds” (FLORATEK PHARMA SA, priority 2019, dated 2025)
“Also recorded” adds a separate entry of the source.

Assays:
C. elegans = experiment: Life span assay on Automated Lifespan Machine (SND302, SND303); assay type: in vivo; conditions: for Maximum life span: average lifespan of the ten longest-lived worms; for Age in days at 25% mortality / Age in days at 50% mortality / Age in days at 75% mortality / Age in days at 90% mortality / Age in days at 100% mortality: SND302, SND303 25 μM, Uro A, Resveratrol 50 μM
Description: An additional life span assay using an adapted standard protocol employed and published by the C. elegans Intervention Testing Program, or CITP was employed to assess the activity of SND302 and SND303. A positive and a negative control were included in the assay. In a preliminary experiment the optimal conditions for the life span analysis was determined and the stress level induced by the compounds as well as toxicity were measured.
For the life span assay over 300 worms per conditions were used and the study was conducted by InVivoBiosystems (USA) using an Automated Lifespan Machine (ALM) with proprietary modifications to improve temperature stability and image acquisition.
To prevent chemical modification or metabolism of the test article by the food bacteria, worms were fed on a lawn of UV-killed bacteria (UV-i bacteria). An overnight culture of E. coli strain WP-2 was pelleted, washed, filtered, and irradiated. A suspension of UV-i bacteria was spotted on NGM agar containing Streptomycin to inhibit growth of contaminating bacteria. The quantity and distribution of food bacteria was calibrated to ensure adequate access to food for the duration of assay while maintaining visibility of the worms.
Test article was delivered to worms by a method compatible with and previously validated on the Automated Lifespan Machine and used by the CIT [Lucanic, et. al. Impact of genetic background and experimental reproducibility on identifying chemical compounds with robust longevity effects. Nature Communications 8 (2017)]. A 200× stock solution was freshly prepared in DMSO immediately before application. 40 μl of DMSO stock (0.5% plate volume) was applied to the plate to coat the food bacteria and then chased immediately with 160 μl water to uniformly distribute a fine precipitate across the surface of the plate. This functioned to provide reservoirs of compound in food, agar, and agar surface.
The ALM used by InVivoBiosystems is based on the Caenorhabditis elegans lifespan machine published by Stroustrup, N. et al. The Caenorhabditis elegans Lifespan Machine. N at Methods 10, 665-670 (2013), with proprietary modifications to improve temperature stability and image acquisition. The scanner unit consists of a modified EPSON V850 and images are processed and analyzed using the ALM software 7. The machine time-of-death calls are trained and validated using the “storyboarding” feature of the ALM software.
The lifespan assay was designed and performed according to published and validated methods, Amrit, F. R. G., Ratnappan, R., Keith, S. A. & Ghazi, A. The C. elegans lifespan assay toolkit. Methods 68, 465-475 (2014); Lucanic, et. al. Manual Lifespan Assay Standard Operating Procedure. Caenorhabditis Intervention Testing Program https://figshare.com/articles/7_CITP_SOP_Manual_Lifespan_Assay/9738197/1. using a modified version of the Automated Lifespan Machine. Worms were age synchronized by bleaching and eggs were plated directly onto NGM agar seeded with UV-I bacteria (Day 1, hatch). On Day 3, when the worms had reached the late L4 stage, they were transferred to dishes containing 100 μM 5-Fluorodeoxyuridine (FUdR) to suppress progeny. On day 5, the worms were washed off the dishes and 30-50 worms were plated on each scanner dish. Plates were immobilized inverted on the bed of an Automated Lifespan Machine which scanned two images per hour of the plates continuously for the next 40 days.
Time of death calls exported from the ALM software were analyzed and plotted using the Lifelines software package developed by Davidson-Pilon, (2019). lifelines: survival analysis in Python. Journal of Open Source Software, 4(40), 1317.

human hepatocytes [1] = experiment: Cell viability (ATP content) in primary human hepatocytes; assay type: cell-based; conditions: 1 to 100 μM, 24 h exposure, pooled human hepatocytes
Description: (§1) Cytotoxicity potency of test compound SND301 was assayed in human hepatocytes from pooled donor lots at three concentrations; 1, 10 and 100 μM. Cytotoxicity was assayed from medium samples after 24 h exposure period with test compounds by measuring membrane integrity (LDH leakage), coupled to fluorescent signal. In parallel, cell viability was assayed by the means of ATP content, indicating the metabolically competent cell activity. ATP content was measured based on luciferase catalysed reaction generating stable bioluminescent signal. Cytotoxic positive control compound was used: chlorpromazine at 5-250 μM.
(§2) Cryopreserved human hepatocytes from pooled donor lot (Bioreclamation IVT) were seeded on collagen I coated 96-well plates (Corning Biocoat) at 0.55×10^5 cells per well in 120 μl InVitroGRO™ CP medium (BioIVT), including additives Torpedo Antibiotic mix (BioIVT). […] Cytotoxicity and cell viability were evaluated based on LDH release in medium and ATP content in the cells after 24 hours exposure phase.
The remaining medium and cells were used for the assessment of metabolically competent cells (ATP) according to the manufacturer's (Promega) protocol. […] The samples were transferred to white opaque-walled 96-well plate (Corning #3610) after which measured with plate reader for luminescence.
(§3) Both LDH and ATP assays were measured 1-2 hours post treatment with assay components.

human hepatocytes [2] = experiment: Cytotoxicity (LDH leakage, membrane integrity) in primary human hepatocytes; assay type: cell-based; conditions: 1 to 100 μM, 24 h exposure, pooled human hepatocytes
Description: as §1, §2
After 24 h exposure half of the culture medium (50 μl) was transferred to black opaque-walled 96-well plate (Corning #3603) for LDH measurements and allowed to settle to room temperature. […] Thereafter the samples were analysed with plate reader for fluorescence (LDH; 560ex, 590em).
as §3

[3] = tested on: N2 wild type strain of worms; experiment: C. elegans life span (survival) assay, manual scoring (SND301); assay type: in vivo; conditions: for Death events / Maximum life span / Median lifespan: SND301 and Urolithin A 50 μM; for % Complete: deaths attributed to aging from total worm population
Description: The survival assay was conducted in the presence of 50 μM SND301 with measurements of live, dead, and censored worms at time points every 2-3 days from the start of adulthood.
Thioflavin T was used in the assay as a positive control [Gamir-Morralla A et al, 2019, “Effects of Thioflavin T and GSK-3 Inhibition on Lifespan and Motility in a Caenorhabditis elegans Model of Tauopathy”, J Alzheimers Dis Rep., 3(1): 47-57]. Vehicle 25% and 1% DMSO were used as controls and represent the vehicles in which compounds and bacteria or bacteria alone respectively were resuspended. The final DMSO concentration in the agar plates was 0.5% and 0.02% respectively.
5 mM DMSO stock solutions for each compound were prepared in high-grade DMSO. Stocks were protected from light and stored in glass vials at 21° C. in a temperature-controlled room (to avoid freeze/thaw of DMSO). A fresh stock was prepared at the start of each experiment and stored for <1 week.
The lifespan assay was designed and performed according to published and validated methods with modifications for chemical treatment [Amrit F R G et al, 2014, “The C. elegans lifespan assay toolkit”, METHODS 68, 465-475; Leukanic, et. Al, “Manual Lifespan Assay Standard Operating Procedure”, Caenorhabditis Intervention Testing Program, https://figshare.com/articles/7_CITP_SOP_Manual_Lifespan_Assay/9738197/1]. Plates were seeded with compound dissolved in 25% DMSO and bacteria. The DMSO diffused through the agar to reach a final concentration of 0.5%. Synchronized day 1 adult worms were transferred to seeded plates containing compound and allowed to lay eggs for 2 hours (Day 0, “hatchoff”). The young adults were then removed, and the eggs were incubated at 20° C. until they had reached the young adult stage (day 3). 200 young adult worms per treatment were transferred to 8 fresh seeded 35 mm dishes with compound and 50 μM 5-Fluorodeoxyuridine to suppress progeny. […] Worms that were missing, stuck to the dish, burrowed, injured, or exploded were scored as censored and removed from the plate. To maintain chemical exposure at the experimental concentrations, worms were transferred every other scoring day to new seeded plates with compound.

[4] = tested on: N2 wild type strain of worms; experiment: Toxicity and food avoidance test in worms (SND301); assay type: in vivo, C. elegans; conditions: concentrations up to 50 μM, from embryo to first day of adulthood
Description: In a first stage of this study, normal worms were treated with various concentrations of SND301 to test toxicity and food avoidance.
To test food avoidance worms were placed on agar plates containing a grid of alternating control and compound-containing food spots. The number of worms on each food spot was recorded every two hours.

[5] = tested on: C. elegans gene expression; experiment: Whole transcriptome analysis (RNA-Seq) of treated worms; assay type: in vivo; conditions: for Significant differentially-expressed genes: 25 μM
Description: To determine the mode of action for SND302 and SND303 the gene transcription in young and aged adults was analyzed by RNA-Seq (whole transcription analysis). For each condition, >300 worms were treated in parallel with the lifespan assay and maintained under identical conditions.
Differential gene expression was performed with EdgeR using […] likelihood ratio tests based on fitting linear models. The likelihood ratios were used to determine the p-values which were subsequently corrected for using the BH false discovery rate (fdr) method. Eventually, differential expressed genes were defined as genes with fdr-corrected p-value of 0.05 or lower, as well as a change in expression of at least 2-fold in a given between-group comparison. Compounds SND302 and SND303 were compared against Urolithin and Vehicle control. […] In general the transcriptomic data corroborates a differential effect for SND303 when compared to SND302 (FIGS. 1-4).
Worms for RNA-Seq were split from the same synchronized pool of worms for the lifespan with each of the three replicates being maintained and treated in parallel. More than 150 worms per replicate were harvested, cleaned by filtration, and frozen at −80° in Trizol. To extract RNA, samples were thawed, vigorously vortexed, and processed using the Direct-zol RNA Miniprep Kit (Zymo Research). All samples exceeded our threshold for RNA quantity and quality. RNA samples were submitted to Novogene Co. Ltd and subjected to more stringent QC, being tested on a Qubit for concentration and run on an agarose gel and on the Agilent […] assess RNA quality and integrity. […] The total RNA was then enriched for poly-mRNA using oligo(dT) paramagnetic beads. DNA libraries were then constructed from this input mRNA using the NEBNext Ultra™ II RNA Library Prep Kit.
These libraries were then further tested by the Qubit for concentration and the Agilent 2100 for library size distribution and quality. In order to properly pool the libraries and load them onto sequencing lanes to ensure the correct number of reads per sample, an even more precise quantification of the library was done via qPCR, and the samples were loaded onto the NovaSeq 6000 platform for a paired-end sequencing run of 150 bp for each end (PE150). The loading concentrations were designed to obtain at least 6.0 Gb (which is the number of billion bases of raw data, determined by the number of reads multiplied by the length of each read). A mean of 7.4 Gb (median 7.3 Gb) raw sequencing data was obtained across all samples, with a minimum of 6.3 Gb and a maximum of 8.5 Gb raw data. Sequencing run data quality control was performed both by Novogene and by an in-house analysis. The raw data set was analyzed for parameters such as the distribution of base quality along the length of the sequencing read, the distribution of error rate along the length of the sequencing read. Reads containing adapter sequences, with N>10% (where N means “base cannot be determined”) and with a low quality (Qscore<=5) for 50% or more of its total bases were removed.

[6] = Table 1A, at a certain point during the study, N2

Compound	Age in days at 25% mortality (C. elegans) [days]	Age in days at 50% mortality (C. elegans) [days]	Age in days at 75% mortality (C. elegans) [days]	Age in days at 90% mortality (C. elegans) [days]	Age in days at 100% mortality (C. elegans) [days]	Death events [3, 6]	% Complete [3, 6] [%]	Death events ([3]; Table 1B, end of the study)	Maximum life span ([3]; end of the study) [days]	Median lifespan ([3]; end of the study) [days]	further results
Oc1ccc(C=Cc2cc(O)cc(O)c2)cc1 [Resveratrol, reference compound]	24.6	28.2	30.5	32.7	37.8						Median lifespan (C. elegans; 50 μM): 28.2 days; Maximum life span (C. elegans; 50 μM): 36.6 days
CNC(=O)Oc1ccc2c(c1)oc(=O)c1cc(OC(=O)NC)ccc12 [SND301]						59	31.6	179	31	24	ATP content (human hepatocytes [1]): 72-103%; Cytotoxicity (LDH) leakage (human hepatocytes [2]): 7-10%; Effect on lifespan ([3]; 50 μM, in words): significantly increased life span; also recorded: significantly increased median lifespan; Surviving fraction ([3]; until day 24, compared with all groups): highest surviving fraction by a considerable margin; Tolerability of exposure [4]: well tolerated
CCNC(=O)Oc1ccc2c(c1)oc(=O)c1cc(OC(=O)NCC)ccc12 [SND302]	24.2	28.2	31.0	33.0	37.9						Significant differentially-expressed genes ([5]; Day 3, compared to the controls (Vehicle and Urolithin A)): 7-8 genes; Expression of gene C50F7.5 ([5]; Day 10): significantly upregulated; Significant differentially-expressed genes ([5]; Day 10, compared to the controls (Vehicle and Urolithin A)): 12-14 genes; Toxicity and stress response induction (transcriptome) ([5]; early exposure period): some signs of toxicity and stress response induction; Median lifespan (C. elegans; 25 μM): 28.2 days; Mean lifespan (C. elegans; 25 μM, area under the survival curve): 27.0 days; Maximum life span (C. elegans; 25 μM): 36.1 days; Effect on lifespan (C. elegans; in words, compared to control): did not show a significant difference from the control
Cc1ccc2c(c1)sc(-c1ccc(N(C)C)cc1)[n+]2C.[Cl-] [Thioflavin, Thioflavin T]						38	23.2	38	33	21	
